Results: ChEMBL document CHEMBL1130373, “Dual CCK-A and -B receptor antagonists (I) C9-methyl-1,4-benzodiazepines” (Bioorg Med Chem Lett, 1997)

Tested on: not listed separately
Assay: Selectivity for cholecystokinin A and B receptors

SMILES	Selectivity
CSc1cccc(NC(=O)NC2N=C(c3ccccc3F)c3cccc(C)c3N(CC(=O)N3CC4CCC(CC4)C3)C2=O)c1 (configuration not stated)	57
Cc1cccc(NC(=O)NC2N=C(c3ccccc3F)c3cccc(C)c3N(CC(=O)N3CC4CCC(CC4)C3)C2=O)c1 (configuration not stated)	36
Cc1cccc2c1N(CC(=O)N1CC3CCC(CC3)C1)C(=O)C(NC(=O)Nc1cccc(-c3nn[nH]n3)c1)N=C2c1ccccc1F (stereo in doubt; 11) [listing 1 of 2 here]	21
COc1cccc(NC(=O)NC2N=C(c3ccccc3F)c3cccc(C)c3N(CC(=O)N3CC4CCC(CC4)C3)C2=O)c1 (configuration not stated)	7.3
Cc1cccc2c1N(CC(=O)N1CC3CCC(CC3)C1)C(=O)C(NC(=O)Nc1cccc(-c3nn[nH]n3)c1)N=C2c1ccccc1F (single isomer, unassigned; (+)) [listing 1 of 2 here]	24
Cc1cccc2c1N(CC(=O)N1CC3CCC(CC3)C1)C(=O)C(NC(=O)Nc1cccc(Cl)c1)N=C2c1ccccc1F (configuration not stated)	3.7
Cc1cccc2c1N(CC(=O)N1CC3CCC(CC3)C1)C(=O)C(NC(=O)Nc1cccc(-c3nn[nH]n3)c1)N=C2c1ccccc1F (stereo in doubt; (-)-11) [listing 1 of 2 here]	110
Cc1cccc2c1N(CC(=O)N1CC3CCC(CC3)C1)C(=O)C(NC(=O)Nc1cccc(C(=O)O)c1)N=C2c1ccccc1F (configuration not stated)	170
Cc1cccc(NC(=O)NC2N=C(c3ccccc3F)c3ccccc3N(CC(=O)N3CC4CCC(CC4)C3)C2=O)c1 (configuration not stated)	710
Cc1cccc2c1N(CC(=O)N1CC3CCC(CC3)C1)C(=O)C(NC(=O)Nc1cccc(Br)c1)N=C2c1ccccc1F (configuration not stated)	2.8
CC(=O)c1cccc(NC(=O)NC2N=C(c3ccccc3F)c3cccc(C)c3N(CC(=O)N3CC4CCC(CC4)C3)C2=O)c1 (configuration not stated)	15

Molecular target: T1, Cholecystokinin receptor type A (Rattus norvegicus, UniProt P30551)
T1 sequence (P30551 whole entry): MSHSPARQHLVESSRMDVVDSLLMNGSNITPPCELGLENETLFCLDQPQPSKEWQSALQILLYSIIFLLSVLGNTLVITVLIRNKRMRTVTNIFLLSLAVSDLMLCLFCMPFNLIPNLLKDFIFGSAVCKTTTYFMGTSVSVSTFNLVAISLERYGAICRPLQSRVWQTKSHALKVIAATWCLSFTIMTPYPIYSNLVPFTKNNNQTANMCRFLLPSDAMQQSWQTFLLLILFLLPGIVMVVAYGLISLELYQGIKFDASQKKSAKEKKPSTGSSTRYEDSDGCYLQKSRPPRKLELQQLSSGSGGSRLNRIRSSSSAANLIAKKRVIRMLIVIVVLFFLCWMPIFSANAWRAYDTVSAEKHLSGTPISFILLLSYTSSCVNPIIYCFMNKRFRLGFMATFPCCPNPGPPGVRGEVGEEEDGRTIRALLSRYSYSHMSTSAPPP
Assay: Inhibition of [125I]Cholecystokinin-8 binding to Cholecystokinin type A receptor of rat pancreatic membranes
Type: cell membranes, Membrane

SMILES	IC50
Cc1cccc2c1N(CC(=O)N1CC3CCC(CC3)C1)C(=O)C(NC(=O)Nc1cccc(-c3nn[nH]n3)c1)N=C2c1ccccc1F (single isomer, unassigned; (+)) [listing 2 of 2 here]	9.2 nM
Cc1cccc2c1N(CC(=O)N1CC3CCC(CC3)C1)C(=O)C(NC(=O)Nc1cccc(-c3nn[nH]n3)c1)N=C2c1ccccc1F (stereo in doubt; (-)-11) [listing 2 of 2 here]	670 nM

Molecular target: T1, Cholecystokinin receptor type A
Assay: Inhibition of [125I]Cholecystokinin-8 (125I-CCK-8) binding to Cholecystokinin type A receptor of rat pancreatic membranes
Type: cell membranes, Membrane

SMILES	IC50
CSc1cccc(NC(=O)NC2N=C(c3ccccc3F)c3cccc(C)c3N(CC(=O)N3CC4CCC(CC4)C3)C2=O)c1 (configuration not stated)	21 nM
Cc1cccc(NC(=O)NC2N=C(c3ccccc3F)c3cccc(C)c3N(CC(=O)N3CC4CCC(CC4)C3)C2=O)c1 (configuration not stated)	17 nM
Cc1cccc2c1N(CC(=O)N1CC3CCC(CC3)C1)C(=O)C(NC(=O)Nc1cccc(-c3nn[nH]n3)c1)N=C2c1ccccc1F (stereo in doubt; 11) [listing 2 of 2 here]	14 nM
COc1cccc(NC(=O)NC2N=C(c3ccccc3F)c3cccc(C)c3N(CC(=O)N3CC4CCC(CC4)C3)C2=O)c1 (configuration not stated)	7.3 nM
Cc1cccc2c1N(CC(=O)N1CC3CCC(CC3)C1)C(=O)C(NC(=O)Nc1cccc(Cl)c1)N=C2c1ccccc1F (configuration not stated)	7.4 nM
Cc1cccc2c1N(CC(=O)N1CC3CCC(CC3)C1)C(=O)C(NC(=O)Nc1cccc(C(=O)O)c1)N=C2c1ccccc1F (configuration not stated)	160 nM
Cc1cccc(NC(=O)NC2N=C(c3ccccc3F)c3ccccc3N(CC(=O)N3CC4CCC(CC4)C3)C2=O)c1 (configuration not stated)	62 nM
Cc1cccc2c1N(CC(=O)N1CC3CCC(CC3)C1)C(=O)C(NC(=O)Nc1cccc(Br)c1)N=C2c1ccccc1F (configuration not stated)	5.1 nM
CC(=O)c1cccc(NC(=O)NC2N=C(c3ccccc3F)c3cccc(C)c3N(CC(=O)N3CC4CCC(CC4)C3)C2=O)c1 (configuration not stated)	13 nM
